Measurements from patent US5455251A, “Michellamine antiviral agents, compositions, and treatment methods” (The United States of America as represented by the …, priority 1993, dated 1995).
Entries after “also recorded” stand apart in the source; their conditions may differ. Read-outs that look alike come from different tables or passages of the source.

What was measured:
[1] = system: HIV-1; conditions: cultured human lymphoblastoid cell lines; Yarchoan et al. 1986; cited from earlier work
[2] = system: HIV; assay type: cell-based
Description: A portion (2.107 g) of this extract was suspended/dissolved in 330 ml of 5% aqueous HCl and extracted with four 100 ml aliquots of CHCl3.
The crude alkaloid fraction, obtained by acid-base partitioning, was subjected to centrifugal partition chromatography (CHCl3 --CH3 OH--0.5% HBr/H2 O, 5:5:3), and elution with the lower phase gave four fractions.

[3] = system: uninfected CEM-SS cells; assay: Direct cytotoxicity to uninfected CEM-SS target cells (XTT/BCECF), 6 days; assay type: cell-based, human; conditions: acetate salts, XTT assay, Table 4
Description: (§1) A battery of interrelated assays on individual wells from 96-well microtiter plates was performed to show antiviral activity. Measurements of cellular viability, in the presence and absence of the compounds in uninfected and virus-infected cells, by an adaptation of the procedure set forth in Weislow et al., J. Natl. Cancer Inst., 81, 577-586 (1989), as well as by an adaptation of a method using the fluorescent probe 2'-7'-biscar-boxyethyl-5(6)-carboxyfluorescein acetoxymethyl ester (BCECF) as set forth in Rink et al., J. Cell Biol., 95, 189-196 (1982), were performed as described herein below. BCECF is a nonfluorescent molecule which readily enters viable cells where it is hydrolyzed by cellular esterases to a fluorescent molecule. Total cellular DNA content was measured with the dye, 2-diamidino-phenylindole (DAPI), which fluoresces when intercalated at A-T specific sites in chromatin, according to the procedure set forth in McCaffrey et al., In Vitro Cell. Develop. Biol., 24, 247-252 (1988). These dyes are used in combination with Particle Concentration Fluorescent Immunoassay technology (PCFIA), specifically the Screen Machine™ available from Baxter Healthcare Corporation (Mundelein, Ill.). The Screen Machine is a semiautomated fluorescent plate reader capable of adding reagents and/or wash buffers to filter-bottomed, 96-well plates with the subsequent evacuation of fluid and concentration of fluorescently-stained cells on the cellulose acetate filter. Fluorescence is detected via epifluorescence. […]
(§2) The appropriate amounts of the pure compounds for anti-HIV evaluations were dissolved in 100% dimethylsulfoxide (DMSO) and then diluted in complete medium to the desired initial concentration (with final DMSO content not exceeding 1%). […] Subsequently, aliquots of cell-free supernatant were removed from each well using the Biomek, and analyzed for reverse transcriptase activity, p24 antigen production, and synthesis of infectious virions (see further below). […]

[4] = system: HIV-2; assay: Anti-HIV-2 (NIH-DZ strain) activity in MT-2 cells, XTT assay, 6 days; assay type: cell-based, HIV-2 NIH-DZ strain in human MT-2 cells; conditions: for antiviral effects against HIV-2: free bases or HBr salts, NIH-DZ strain, MT-2 cells
Description: (§3) The human lymphocytic target cell lines, CEM-SS and MT-2, used in the antiviral assays were maintained in RPMI 1640 medium (Gibco, Grand Island, N.Y.) without phenol red and supplemented with 5% fetal bovine serum (FBS) (Gibco), 2 mM L-glutamine, and 50 μg/ml gentamicin (Gibco) (complete medium). Exponentially-growing CEM-SS or MT-2 cells were pelleted and resuspended at a concentration of 2.0×10^5 cells/ml in complete medium. For the HIV-1 studies, the Haitian variant of HIV, HTLV-IIIRFwas used. For the HIV-2 studies, the NIH-DZ strain or the CBL20 strain was used. Frozen virus stock solutions were thawed immediately before use and resuspended in complete medium to yield 1.2×10 ^5 SFU/ml.
(§4) The appropriate amounts of the pure compounds for anti-HIV evaluations were dissolved in 100% dimethylsulfoxide (DMSO) and then diluted in complete medium to the desired initial concentration (with final DMSO content not exceeding 1%). All serial dilutions of the michellamines A, B, and C, reagent additions, and plate-to-plate transfers were carried out using an automated Biomek 1000 Workstation (Beckman Instruments, Palo Alto, Calif.). […] Subsequently, aliquots of cell-free supernatant were removed from each well using the Biomek, and analyzed for reverse transcriptase activity, p24 antigen production, and synthesis of infectious virions (see further below). A 25 μl sample of 0.002% (w/v) Fluoricon reference particles (590/620 nm) (Baxter Healthcare Corp.) was added to each well of the test plate to be used as an internal standard for fluorescence assays. […]
(§5) As an estimate of cellular viability, the metabolic reduction of the tetrazolium salt, XTT, to the soluble, colored formazan was carried out by adding 50 μl of the XTT/PMS solution to each well of the original test plate and incubating for 4 hrs at 37° C. After incubation the plates were covered with adhesive plate sealers (Dynatech, Alexandria, Va.) and shaken, and optical densities were determined using a V-max photometer (Molecular Devices, Inc., Menlo Park, Calif.) at a test wavelength of 450 nm. […]

[5] = system: HIV-2; assay: Anti-HIV-2 (CBL20 strain) activity in CEM-SS cells, XTT assay; assay type: cell-based, HIV-2 CBL20 strain in human CEM-SS cells; conditions: acetate salts
Description: as §3
as §4, with “Calif.). Each compound was diluted initially in complete medium and added to a single column of a 96-well microtiter plate (dilution plate). The Biomek was used to perform eight serial dilutions of each drug and to transfer a 100 μl aliquot of each dilution to the test plate. Uninfected CEM-SS or MT-2 cells were plated at a density of 1×10^4 cells in 50 μl of complete medium. Diluted HIV-1 or HIV-2 virus was then added to appropriate wells in a volume of 50 μl to yield a multiplicity of infection of 0.6. Appropriate cell, virus, and drug controls were used, with the final volume in each well being 200 μl.” for “Calif.).”
as §5

[6] = system: HIV-1; assay: Cytoprotection of HIV-1-infected CEM-SS cells, viability by XTT and/or BCECF, 6 days; assay type: cell-based; conditions: acetate salts, XTT assay, HIV-1, side-by-side comparison (Table 4), read-out: EC50 (anti-HIV-1 activity)
Description: as §1, §2

[7] = Variable temperature NMR for spontaneous interconversion of atropisomers; assay type: physicochemical
Description: Michellamine C appears to have the opposite configuration from michellamine A about the C-5/C-8' and C-5"'/C-8" bonds.

SMILES: Cc1cn([C@H]2C[C@H](N=[N+]=[N-])[C@@H](CO)O2)c(=O)[nH]c1=O [AZT]
- in vitro cytoprotective effects against HIV-1 [1]: in vitro cytoprotective effects against the HIV-1

SMILES: COc1cc(C)cc2c(-c3c(O)cc(O)c4c3C[C@@H](C)N[C@@H]4C)cc(-c3cc(-c4c(O)cc(O)c5c4C[C@@H](C)N[C@@H]5C)c4cc(C)cc(OC)c4c3O)c(O)c12 [Michellamine A]
- anti-HIV activity of isolated compounds [2]: active
- IC50 ([3]; Homo sapiens, CEM-SS): 168 µM
- antiviral effects against HIV-2 ([4]; listed as michellamine A): showed antiviral effects
- EC50 ([5]; listed as michellamine A): ~10 µM
- anti-HIV-2 potency, comparison in words ([5]; listed as michellamine A): somewhat less potent
- EC50 ([6]; Human immunodeficiency virus 1, CEM-SS): 9.6 µM

SMILES: COc1cc(C)cc2c(-c3c(O)cc(O)c4c3C[C@@H](C)N[C@@H]4C)cc(-c3cc(-c4c(O)cc(O)c5c4C[C@@H](C)N[C@@H]5C)c4cc(C)cc(OC)c4c3O)c(O)c12 [Michellamine B]
- IC50 ([3]; listed as B): > 240 µM
- EC (essentially complete protection) ([4]; Human immunodeficiency virus 2, MT2, 144 h, read-out: concentration giving essentially complete protection against killing effects of HIV-2 upon MT-2 cells): 30 to 100 µM
- antiviral effects against HIV-2 ([4]; listed as michellamine B): showed antiviral effects; also recorded: consistently was more potent than michellamine A against HIV-2
- EC50 ([5]; listed as michellamine B): < 2 µM
- EC50 ([6]; listed as B): 9.6 µM

SMILES: COc1cc(C)cc2c(-c3c(O)cc(O)c4c3C[C@@H](C)N[C@@H]4C)cc(-c3cc(-c4c(O)cc(O)c5c4C[C@@H](C)N[C@@H]5C)c4cc(C)cc(OC)c4c3O)c(O)c12 [Michellamine C]
- IC50 ([3]; listed as C): 193 µM
- spontaneous interconversion [7]: failed to show evidence of spontaneous interconversion
- EC50 ([5]; listed as michellamine C): < 2 µM
- EC50 ([6]; listed as C): 12.8 µM
